Measurements published in ChEMBL document CHEMBL1201862, “PubChem BioAssay data set” (2004).
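The compound was tested at five concentrations on cells cultured in 96-well plates, with a 48-hour exposure period. Here, GI50 denotes the concentration required for 50% inhibition of growth.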 Activity calls are given as the source filed them. Cut-off read from the data, not from the text of the source: active = GI50 up to about 1.1 µM and inactive = higher.

Tests used:
Assay in all cases: NCI anticancer screen, dose series, 48 h
SF-295 = system: SF-295
EKVX = system: EKVX
MDA-MB-435 = system: MDA-MB-435
HOP-92 = system: HOP-92
UACC-257 = system: UACC-257
SN12C = system: SN12C
MCF7 = system: MCF7
SNB-75 = system: SNB-75
NCI-H23 = system: NCI-H23
OVCAR-8 = system: OVCAR-8
RPMI-8226 = system: RPMI-8226
786-0 = system: 786-0
SK-MEL-2 = system: SK-MEL-2
SF-268 = system: SF-268
SNB-19 = system: SNB-19
HT-29 = system: HT-29
OVCAR-5 = system: OVCAR-5
HCT-116 = system: HCT-116
MDA-N = system: MDA-N
NCI-H522 = system: NCI-H522

Measured: GI50

O=C(O)c1ccccc1CC1Cc2ccccc2C1
inactive: SF-295 > 100 µM | EKVX > 100 µM | MDA-MB-435 > 100 µM | HOP-92 > 100 µM | UACC-257 > 100 µM | SN12C > 100 µM | MCF7 > 100 µM | SNB-75 > 100 µM | NCI-H23 > 100 µM | OVCAR-8 > 100 µM | RPMI-8226 > 100 µM | 786-0 > 100 µM | SK-MEL-2 > 100 µM | SF-268 > 100 µM | SNB-19 > 100 µM | HT-29 > 100 µM | OVCAR-5 > 100 µM | HCT-116 > 100 µM | MDA-N > 100 µM | NCI-H522 > 100 µM
